These results are taken from article PMC11591946, “Exploring the Potential of Biomimetic Peptides in Targeting Fibrillar and Filamentous Alpha-Synuclein—An In Silico and Experimental Approach to Parkinson’s Disease” (Biomimetics, 2024).

Experiment [1] addresses T1, ASyn preformed fibrils (Homo sapiens, UniProt P37840).
T1 construct: purchased StressMarq
The experiment is described as follows: Thioflavin-T (ThT) assay. In kind it is biochemical. The settings on record: 20 μM ASyn preformed fibrils + 20 μM peptide in PBS, 70 μM ThT; for reduction in ThT fluorescence intensity: excitation 440 nm, over the course of 46 h. On the procedure:
Thioflavin T assay was conducted to assess the effect of five peptides (PYYYWKELAQM; PYYYWKDPNGS; EQALMPEGMGLEDPNGS; ELAQMPYYYWKDPNGS; ELAQMPWIWYWKDPNGS) on ASyn preformed fibrils (StressMarq). […] [75]. The samples were prepared by incubating 20 μM of ASyn diluted in PBS buffer with 20 μM of each peptide. To each sample, 70 μM ThT dye diluted in deionized water was added. The prepared solutions were then transferred into quartz cuvettes, and the emission spectra at different time intervals were recorded. Samples were excited at 440 nm, and emission spectra were recorded between 460 nm to 550 nm at a slit of 3 nm.

Experiment [2] is described as follows: DPPH radical scavenging antioxidant assay. In kind it is biochemical. The settings on record: colorimetric DPPH kit; at the highest concentrations (2, 10, 20, 40 µM tested). On the procedure:
To investigate the antioxidant activity of the five peptides (PYYYWKELAQM; PYYYWKDPNGS; EQALMPEGMGLEDPNGS; ELAQMPYYYWKDPNGS; ELAQMPWIWYWKDPNGS), we conducted a colorimetric DPPH (2,2-diphenyl-1-picrylhydrazyl) radical scavenging assay using an antioxidant assay kit (AbCam, USA). In general, the protocol from the assay kit was followed to determine the antioxidant activity. Four different concentrations of each of the peptides were utilized (2 µM, 10 µM, 20 µM, and 40 µM). A standard curve was generated using Trolox, and then the activities of each of the peptides were compared by calculating the inhibition ratio.

Where no end group is shown, it is not given here.

“ELAQMGPEGPMGLEDPNGS [ELAQMGPEGPMGLEDPNGS]”: the “reduction in ThT fluorescence intensity” value in experiment [1] was found to be 32%.

Consider ELAQMPYYYWKDPNGS [ELAQMPYYYWKDPNGS], for which the “reduction in ThT fluorescence intensity” value in experiment [1] was 27%.

As for EQALMPWIWYWKDPNGS [EQALMPWIWYWKDPNGS], the “reduction in ThT fluorescence intensity at 48 h” value in experiment [1] (at 48 h) is listed as 42%. Further, in experiment [2], the “DPPH radical scavenging activity in comparison to Trolox (standard)” value turned out to be 19%.

Consider PYYYWKDPNGS [PYYYWKDPNGS], for which, in experiment [1], the “reduction in ThT fluorescence intensity” value was determined as 46.2%.
